These results are taken from ChEMBL document CHEMBL1201862, “PubChem BioAssay data set” (2004).

Series [1] in a line: HEK-293T viability loss after treatment – luminescence, T-cell screen hits, cytotoxicity control for TCR NF-kB inhibitor project, dose response (AID 489026).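 Also: cells exposed to compound about 14 hours before the viability readout.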 It counts as functional, cell-based.
The next series concerns P388/ADR. The experiment in a line: cells. It counts as functional. The following applies: Mus musculus.
The next series deals with SN12K1. Briefly: cells. The series is classed as functional. As to conditions: Homo sapiens.
Another series has as its system P388. Briefly: cells. The series is classed as functional. The following applies: Mus musculus.
For another series, the target named is Cytochrome P450 2C9 (Homo sapiens, UniProt P11712).
Series [2] addresses Dual specificity tyrosine-phosphorylation-regulated kinase 1A (Rattus norvegicus, UniProt Q63470). The series is classed as biochemical, Homo sapiens.
In series [3] the target is FAD-linked sulfhydryl oxidase ALR (Homo sapiens, UniProt P55789). The experiment in a line: ALR-catalysed DTT oxidation blockers – biochemical, H2O2 detection, luminescence, cherry-pick, dose response (AID 493248).
The target of series [4] is T1, Rac GTPase-activating protein 1 (Homo sapiens, UniProt Q9H0H5).
T1 sequence (Q9H0H5 whole entry): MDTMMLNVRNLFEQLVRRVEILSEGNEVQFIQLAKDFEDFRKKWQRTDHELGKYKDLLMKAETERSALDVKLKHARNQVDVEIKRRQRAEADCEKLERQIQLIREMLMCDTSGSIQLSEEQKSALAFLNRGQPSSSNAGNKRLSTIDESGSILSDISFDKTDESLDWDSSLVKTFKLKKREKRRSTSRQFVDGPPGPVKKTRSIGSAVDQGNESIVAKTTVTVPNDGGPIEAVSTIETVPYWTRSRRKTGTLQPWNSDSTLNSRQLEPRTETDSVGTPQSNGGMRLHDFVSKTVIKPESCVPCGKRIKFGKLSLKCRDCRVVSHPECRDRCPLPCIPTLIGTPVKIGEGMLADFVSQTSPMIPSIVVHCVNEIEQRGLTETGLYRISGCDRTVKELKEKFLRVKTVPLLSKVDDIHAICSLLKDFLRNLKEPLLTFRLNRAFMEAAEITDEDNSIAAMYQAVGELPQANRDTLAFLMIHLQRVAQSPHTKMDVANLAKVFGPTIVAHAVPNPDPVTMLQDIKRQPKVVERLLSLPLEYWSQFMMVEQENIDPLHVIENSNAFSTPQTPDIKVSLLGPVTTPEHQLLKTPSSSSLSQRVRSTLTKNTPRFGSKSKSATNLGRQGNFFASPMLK
Briefly: blockers of MgcRacGAP-driven Rac1 GTP hydrolysis – biochemical, ADP Hunter fluorescence, primary and confirmatory, confirmation (AID 624330). The series is classed as functional.

Another series concerns the target Cytochrome P450 2C19 (Homo sapiens, UniProt P33261). The experiment in a line: Cytochrome panel assay with activity outcomes. Panel member name: p450-cyp2c19 Compounds with AC50 equal or less than 10 uM are considered active. It counts as functional. The following applies: read-out: AC50.
For series [5], the system named is BJ. Briefly: BJ-TERT fibroblast viability loss – cell-based, RAS-independent, luminescence, dose response (AID 1933). As to conditions: Homo sapiens. It counts as functional.
The subject of series [6] is BJ. The experiment in a line: cells. It counts as functional, cell-based. The following applies: Homo sapiens.
In series [7] the test system is BJ. Briefly: BJ-TERT-LT-ST fibroblast viability loss – cell-based, RAS-independent, luminescence, dose response (AID 1935).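 Also: BJ fibroblasts immortalized with TERT plus LT and ST oncogenes.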 It counts as functional. The following applies: Homo sapiens.
A short description of series [8]: DRD fibroblast viability loss – cell-based, non-viral oncogenic, luminescence, dose response (AID 1934). The following applies: Homo sapiens. It counts as functional.
The target of series [9] is T2, Sentrin-specific protease 8 (Homo sapiens, UniProt Q96LD8).
T2 sequence (Q96LD8 whole entry): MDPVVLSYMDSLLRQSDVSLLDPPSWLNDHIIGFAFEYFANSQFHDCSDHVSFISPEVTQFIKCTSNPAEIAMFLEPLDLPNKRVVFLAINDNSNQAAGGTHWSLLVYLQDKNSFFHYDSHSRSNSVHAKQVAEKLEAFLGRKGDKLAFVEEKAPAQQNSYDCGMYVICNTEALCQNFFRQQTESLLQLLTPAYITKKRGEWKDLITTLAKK
The series is classed as functional.

Series [10] addresses T2, Sentrin-specific protease 8. It counts as functional. This is another data set of the same source.
Another series concerns the target Cytochrome P450 3A4 (Homo sapiens, UniProt P08684).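 Also: CYP3A4 tested as one member of a cytochrome P450 panel screen.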
Series [11] in a line: viability of uninfected HEp-2 cells – cell-based, HTS, cytotoxicity control for RSV inhibitor project, dose response (AID 2410). The series is classed as functional. As to conditions: human respiratory syncytial virus.
The target in the next series is T3, Cytochrome P450 1A2 (Homo sapiens, UniProt P05177).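 Also: PubChem cytochrome P450 panel assay, CYP1A2 panel member.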
T3 sequence (P05177 whole entry): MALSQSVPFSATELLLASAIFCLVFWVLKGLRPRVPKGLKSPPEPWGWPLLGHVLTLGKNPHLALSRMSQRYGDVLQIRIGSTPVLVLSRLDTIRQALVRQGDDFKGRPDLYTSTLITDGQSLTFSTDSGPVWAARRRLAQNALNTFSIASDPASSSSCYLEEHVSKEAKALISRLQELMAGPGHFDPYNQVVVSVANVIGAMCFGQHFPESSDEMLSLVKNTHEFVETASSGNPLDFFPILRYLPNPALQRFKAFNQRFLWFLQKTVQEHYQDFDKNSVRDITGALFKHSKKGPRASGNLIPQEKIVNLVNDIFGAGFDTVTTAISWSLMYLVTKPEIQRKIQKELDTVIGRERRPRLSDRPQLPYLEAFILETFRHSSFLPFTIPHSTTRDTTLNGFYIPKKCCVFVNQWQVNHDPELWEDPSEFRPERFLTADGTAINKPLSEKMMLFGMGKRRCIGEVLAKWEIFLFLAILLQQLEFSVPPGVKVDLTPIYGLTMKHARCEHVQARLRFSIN

Activity calls are given as the source filed them. Some results are limits rather than exact numbers.

Chain of Cytochrome P450 2C9 (P11712 whole entry): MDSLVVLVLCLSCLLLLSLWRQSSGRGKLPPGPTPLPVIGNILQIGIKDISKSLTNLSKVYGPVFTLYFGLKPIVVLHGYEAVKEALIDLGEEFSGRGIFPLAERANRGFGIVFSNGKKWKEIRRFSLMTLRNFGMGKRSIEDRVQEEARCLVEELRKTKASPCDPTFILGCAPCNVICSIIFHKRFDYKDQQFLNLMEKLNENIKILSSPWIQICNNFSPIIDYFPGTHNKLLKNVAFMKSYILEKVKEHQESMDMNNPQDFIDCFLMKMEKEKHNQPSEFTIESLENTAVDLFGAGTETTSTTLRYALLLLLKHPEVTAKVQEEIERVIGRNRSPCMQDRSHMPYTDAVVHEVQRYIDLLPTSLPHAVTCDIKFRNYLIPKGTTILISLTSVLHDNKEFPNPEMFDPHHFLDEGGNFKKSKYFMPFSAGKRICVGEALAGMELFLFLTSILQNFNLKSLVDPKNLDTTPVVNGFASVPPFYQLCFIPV
Chain of Cytochrome P450 3A4 (P08684 whole entry): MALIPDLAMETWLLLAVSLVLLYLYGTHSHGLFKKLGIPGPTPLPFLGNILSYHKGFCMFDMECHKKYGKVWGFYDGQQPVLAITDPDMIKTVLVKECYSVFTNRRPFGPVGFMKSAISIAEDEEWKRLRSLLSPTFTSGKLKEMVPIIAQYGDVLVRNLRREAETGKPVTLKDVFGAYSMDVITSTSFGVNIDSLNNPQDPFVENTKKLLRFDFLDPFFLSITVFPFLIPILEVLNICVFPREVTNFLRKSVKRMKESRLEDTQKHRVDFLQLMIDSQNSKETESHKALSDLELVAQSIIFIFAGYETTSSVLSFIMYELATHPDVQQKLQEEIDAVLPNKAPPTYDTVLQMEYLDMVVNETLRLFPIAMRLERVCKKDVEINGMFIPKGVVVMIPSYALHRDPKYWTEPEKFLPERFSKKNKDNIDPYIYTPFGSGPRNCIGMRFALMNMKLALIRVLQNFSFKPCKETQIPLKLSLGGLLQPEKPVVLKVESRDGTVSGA
Chain of FAD-linked sulfhydryl oxidase ALR (P55789 whole entry): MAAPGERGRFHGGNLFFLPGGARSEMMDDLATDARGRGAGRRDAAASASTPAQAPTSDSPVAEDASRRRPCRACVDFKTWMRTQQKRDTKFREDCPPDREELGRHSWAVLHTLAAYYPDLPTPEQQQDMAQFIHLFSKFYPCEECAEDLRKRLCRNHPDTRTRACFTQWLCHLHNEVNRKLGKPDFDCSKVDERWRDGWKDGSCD
Chain of Cytochrome P450 2C19 (P33261 whole entry): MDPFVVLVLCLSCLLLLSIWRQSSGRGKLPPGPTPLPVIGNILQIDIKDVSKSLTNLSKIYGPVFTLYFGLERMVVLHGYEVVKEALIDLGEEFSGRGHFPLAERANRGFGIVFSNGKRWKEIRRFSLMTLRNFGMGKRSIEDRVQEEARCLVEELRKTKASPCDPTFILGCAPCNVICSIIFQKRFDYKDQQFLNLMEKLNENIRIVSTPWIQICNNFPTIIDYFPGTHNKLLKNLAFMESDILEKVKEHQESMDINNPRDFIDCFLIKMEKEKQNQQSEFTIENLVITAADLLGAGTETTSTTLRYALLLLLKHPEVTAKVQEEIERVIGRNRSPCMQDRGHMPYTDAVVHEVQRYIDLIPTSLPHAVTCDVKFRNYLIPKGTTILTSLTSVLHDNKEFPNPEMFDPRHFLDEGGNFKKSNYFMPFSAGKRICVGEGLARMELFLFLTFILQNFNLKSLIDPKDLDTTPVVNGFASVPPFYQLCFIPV

In general, IC50 refers to the concentration at which inhibition is half-maximal. As to `Cc1ccc(/C=N/NC(=O)c2c(C)nc3ccc(Br)cn23)cc1`, the IC50 in [1] is > 80 µM (inactive).
The term GI50 denotes the concentration giving 50% growth inhibition. As for `O=C1NC(c2cccc3ccccc23)Nc2ccc(O)cc21` (configuration not stated), the GI50 with P388/ADR was 24.8 µM (inactive); in the series with SN12K1 it was 36.7 µM (inactive); with P388 it was 19 µM (inactive).
The AC50 is the concentration giving half of the maximal activity seen. As for `COc1cc(C)c(Br)cc1S(=O)(=O)NCc1ccccc1`, the AC50 entry at Cytochrome P450 2C9 was “inconclusive”.
Regarding `CCCCC1=C(Br)C(=C(Br)Br)OC1=O`, the GI50 in the series with P388/ADR was 0.443 µM (active); in the series on SN12K1 it was 1.96 µM (inactive); in the series with P388, 0.505 µM (active).
Take `Cc1ccccc1NS(=O)(=O)c1ccc(N2CCCC2=O)cc1`: the IC50 in [1] was > 80 µM (inactive).
As to `COC(=O)C1OC(Oc2cc(O)c3c(=O)cc(-c4ccc(O)cc4)oc3c2)C(O)C(O)C1O` (configuration not stated), the results for the GI50 in the series with P388/ADR and in the series on SN12K1 were > 35.5 µM (inactive) and > 100 µM (inactive), respectively.
Consider `C[C@H]1C/C=C/[C@H]2[C@@H]3O[C@]3(C)[C@@H](C)[C@H]3[C@H](Cc4ccccc4)NC(=O)[C@]32OC(=O)O/C=C/[C@@](C)(O)C1=O` [CYTOCHALASIN E], for which the GI50 in the series on SN12K1 is < 0.01 µM (active); with P388, 0.0166 µM (active).
For the molecule `COc1ccc(-c2csc(N=C(N)N)n2)cc1`, the AC50 in [2] is 0.541 µM (active).
Regarding `COc1ccccc1/C=C1\CCC(CN(C)C)C1=O` (configuration not stated), the GI50 is 0.568 µM (active) in the series with P388/ADR, 2.05 µM (inactive) in the series on SN12K1 and 0.608 µM (active) in the series with P388.
With `CCCCC(NC(=O)CC)C(=O)O` (configuration not stated), the GI50 in the series on P388/ADR, in the series on SN12K1 and in the series with P388 was > 100 µM (inactive) in each case.
On to `CN(C)c1ccc(C(=O)NC2(N3CCC3=O)CCCC2)cc1`, for which the AC50 in [3] was 2.55 µM (active). Also, the half-inhibitory concentration (IC50) in series [4] was 126 µM (active).
`Brc1[nH]nc2ccccc12`: the AC50 on Cytochrome P450 2C19 is 11.2 µM (inconclusive); on Cytochrome P450 2C9, “inconclusive”.
The term EC50 denotes the concentration at which the effect is half-maximal. Turning to `COc1ccc(Cl)cc1NC(=O)CN(C)CC(=O)Nc1ccccc1N1CCOCC1`, the EC50 in the series on BJ [5] is 3.04 µM (active); in the series with BJ [6], 37.1 µM (active); in the series on BJ [7], 30.7 µM (active); in [8], 2.55 µM (active). Besides, the IC50 in series [1] is 70.8 µM (inactive).
With `Cc1nc2c(ccc3nsnc32)[nH]1`, the half-maximal activity concentration (AC50) in series [2] was 5.91 µM (active).
Turning to `COc1cccc2c1C(=O)c1c(O)c3c(c(O)c1C2=O)C[C@@](O)(C(C)=O)C[C@@H]3OC1CC(N(Cc2ccccc2)Cc2ccccc2)C(O)C(C)O1` (some centres not stated), the GI50 in the series on P388/ADR was 1.57 µM (inactive); in the series on SN12K1, 2.92 µM (inactive); with P388, 0.675 µM (active).
As for `Cc1c2cc[n+](C)cc2c(C)c2c1[nH]c1ccc(O)cc12` [ELLIPTINIUM ACETATE], the GI50 in the series on P388/ADR was 1.92 µM (inactive); in the series on SN12K1 it was 2.98 µM (inactive); in the series with P388, 0.131 µM (active).
`COC(=O)c1ccc(C)cc1C1CN=NC12Cc1cc(C)ccc1C2=O` (configuration not stated): the IC50 in series [9] is 20.9 µM (active); in series [10], 13.9 µM (active).
In the case of `CCN(CC)S(=O)(=O)c1ccc2c3c(cccc13)C(=O)S2`, the values for the AC50 at Cytochrome P450 3A4 and at Cytochrome P450 2C9 were 17.8 µM (inconclusive) and “inconclusive”, respectively.
For orientation: CC50 means the concentration at which the toxic effect on the cells reaches its halfway point. For the molecule `Sc1nnc(-c2ccccn2)n1/N=C/c1ccc(-c2ccccc2Cl)o1`, in [11], the CC50 was > 50 µM (active). Besides, the AC50 in [3] is 5.29 µM (active).
In the case of `Cc1[nH]n(-c2ccccc2)c(=O)c1CCOC(=O)c1cccc(C(F)(F)F)c1`, the AC50 at Cytochrome P450 1A2 was 22.4 µM (inconclusive); on Cytochrome P450 2C9 it was “inconclusive”.
Take `Cc1nc(NC(N)=Nc2ccccc2)nc2ccccc12`: the AC50 on Cytochrome P450 2C19 was 39.8 µM (inconclusive); on Cytochrome P450 3A4 it was 39.8 µM (inconclusive); on Cytochrome P450 2C9, “inconclusive”.
For `O=S(=O)(O)c1cccc(N=Nc2c(O)ccc3ccccc23)c1`, the AC50 in series [2] was 5.88 µM (active).
For the molecule `C#CCn1c(=O)c(C#N)c(O)c2cc3ccccc3nc21`, the GI50 in the series with P388/ADR, in the series on SN12K1 and in the series on P388 was > 100 µM (inactive) throughout.
Turning to `COc1ccc(NC(=O)/C(C#N)=C\c2ccc(-c3cccc(C(=O)O)c3C)o2)cc1`, the AC50 in series [2] is 1.7 µM (active).
